Laboratory results reported in ChEMBL document CHEMBL1156829 (Proc Natl Acad Sci U S A, 2008).

Key:
[1] = NOVARTIS: Cytotoxicity against human hepatocellular carcinoma cell line (Huh7); assay type: toxicity, cell-based, Huh-7; settings: Huh7 cells (hepatocellular carcinoma cell line)
Plasmodium falciparum [2] = assay: NOVARTIS: Inhibition of Plasmodium falciparum 3D7 (drug-susceptible) proliferation in erythrocyte-based infection assay; assay type: functional, organism-based; settings: Plasmodium falciparum, 3D7
Plasmodium falciparum [3] = assay: NOVARTIS: Inhibition of Plasmodium falciparum W2 (drug-resistant) proliferation in erythrocyte-based infection assay; assay type: functional, organism-based; settings: Plasmodium falciparum, W2; read-out: EC50

COc1nc(NC(=N)N)nc2ccc(C)cc12
CC50 [1]: 58000 nM
EC50 (Plasmodium falciparum [2]): 880 nM
EC50 (Plasmodium falciparum [3]): 608 nM

Fc1ccccc1CCNc1ncnc2c1[nH]c1ccccc12
CC50 [1]: 14300 nM
EC50 (Plasmodium falciparum [2]): 165 nM
EC50 (Plasmodium falciparum [3]): 150 nM

O=C1[C@@H]2Cc3c([nH]c4ccccc34)C(CCc3ccccc3)N2C(=O)CN1CCc1c[nH]c2ccccc12 (some centres not stated)
CC50 [1]: > 100000 nM
EC50 (Plasmodium falciparum [2]): 2810 nM
EC50 (Plasmodium falciparum [3]): 1050 nM

O=C1CC(c2ccc([N+](=O)[O-])cc2)C2=C(CC(c3ccc(F)cc3)CC2=O)N1 (configuration not stated)
CC50 [1]: > 100000 nM
EC50 (Plasmodium falciparum [2]): 2020 nM
EC50 (Plasmodium falciparum [3]): 1070 nM

Fc1ccc(CN2CCc3nc(N4CCCCC4)sc3C2)cc1F
CC50 [1]: > 100000 nM
EC50 (Plasmodium falciparum [2]): 1100 nM
EC50 (Plasmodium falciparum [3]): 1070 nM

O=c1nc(C=Cc2ccc(Cl)cc2)oc2ccccc12
CC50 [1]: > 100000 nM
EC50 (Plasmodium falciparum [2]): 1100 nM
EC50 (Plasmodium falciparum [3]): 1060 nM

Nc1c(C(=O)Nc2ccc(C3=NCCN3)cc2)cccc1C(=O)Nc1ccc(C2=NCCN2)cc1
CC50 [1]: > 10000 nM
EC50 (Plasmodium falciparum [2]): 259 nM
EC50 (Plasmodium falciparum [3]): 107 nM

Clc1ccc2c(N3CCC(n4cccc4)CC3)ccnc2c1
CC50 [1]: > 100000 nM
EC50 (Plasmodium falciparum [2]): 1020 nM
EC50 (Plasmodium falciparum [3]): 1050 nM

CCN(CC)CCN1C(=O)c2ccccc2NC1c1ccc(C)cc1 (configuration not stated)
CC50 [1]: > 100000 nM
EC50 (Plasmodium falciparum [2]): 858 nM
EC50 (Plasmodium falciparum [3]): 1050 nM

Cc1ccc(-c2nc3ncccc3o2)cc1NC(=O)COc1ccc(C(C)(C)C)cc1
CC50 [1]: > 100000 nM
EC50 (Plasmodium falciparum [2]): 420 nM
EC50 (Plasmodium falciparum [3]): 1050 nM

CCOc1ccc2[nH]c(=O)c(C(c3nnnn3CCOC)N3CCCC3)cc2c1 (configuration not stated)
CC50 [1]: > 100000 nM
EC50 (Plasmodium falciparum [2]): > 12500 nM
EC50 (Plasmodium falciparum [3]): 1050 nM

COc1ccc(OC)c(-c2ccc(O)c(CNCCc3cccc(F)c3)c2)c1
CC50 [1]: > 10000 nM
EC50 (Plasmodium falciparum [2]): 675 nM
EC50 (Plasmodium falciparum [3]): 106 nM

COc1ccc(CCN2C(=O)N(CCN(C)C)C(=O)C23CCN(Cc2ccc(O)cc2)CC3)cc1
CC50 [1]: 78500 nM
EC50 (Plasmodium falciparum [2]): 221 nM
EC50 (Plasmodium falciparum [3]): 828 nM

Cn1nc(C(F)(F)F)c(C(=O)Nc2ccc(Cl)cc2)c1Sc1ccc(Cl)cc1
CC50 [1]: 34800 nM
EC50 (Plasmodium falciparum [2]): 749 nM
EC50 (Plasmodium falciparum [3]): 369 nM

COc1ccc(/C=C2\SC(=Nc3ccccc3OC)NC2=O)cc1
CC50 [1]: > 10000 nM
EC50 (Plasmodium falciparum [2]): 249 nM
EC50 (Plasmodium falciparum [3]): 106 nM

CCCCCNC(=O)C1CSC(c2ccoc2)N1C(=O)c1ccccc1Cl (configuration not stated)
CC50 [1]: > 100000 nM
EC50 (Plasmodium falciparum [2]): 2320 nM
EC50 (Plasmodium falciparum [3]): 1060 nM

CCCCCN(CCCCC)C(O)c1cc2c(c3ccccc13)CCCC2 (configuration not stated)
CC50 [1]: 35400 nM
EC50 (Plasmodium falciparum [2]): 58.2 nM
EC50 (Plasmodium falciparum [3]): 377 nM

COc1ccc(-[n+]2cc(-c3ccc(Cl)cc3)n3c2SCCC3)cc1
CC50 [1]: > 100000 nM
EC50 (Plasmodium falciparum [2]): 673 nM
EC50 (Plasmodium falciparum [3]): 1060 nM

COc1ccc2c(c1)C(C)(CC#N)C(=O)N2C (configuration not stated)
CC50 [1]: > 100000 nM
EC50 (Plasmodium falciparum [2]): 5640 nM
EC50 (Plasmodium falciparum [3]): 1060 nM

C=CCn1c(COc2ccccc2C)nnc1SCC(=O)O
CC50 [1]: > 100000 nM
EC50 (Plasmodium falciparum [2]): > 12500 nM
EC50 (Plasmodium falciparum [3]): 1050 nM

C=C[C@H]1CN2CC[C@H]1C[C@@H]2[C@@H](OC(=O)c1ccco1)c1ccnc2ccccc12
CC50 [1]: > 10000 nM
EC50 (Plasmodium falciparum [2]): 149 nM
EC50 (Plasmodium falciparum [3]): 104 nM

c1cc2cc3c(cc2c2cc4c(cc12)C[N+]1(CCCC1)C4)C[N+]1(CCCC1)C3
CC50 [1]: > 100000 nM
EC50 (Plasmodium falciparum [2]): 645 nM
EC50 (Plasmodium falciparum [3]): 1060 nM

CCOC(=O)N1CCC(NC(=O)c2c(C)nn(-c3cccc(C)c3)c2-n2cccc2)CC1
CC50 [1]: > 100000 nM
EC50 (Plasmodium falciparum [2]): 280 nM
EC50 (Plasmodium falciparum [3]): 1060 nM

CC(=O)N(C1=C(N2CCOCC2)C(=O)c2ccccc2C1=O)c1ccc(Br)cc1
CC50 [1]: 19100 nM
EC50 (Plasmodium falciparum [2]): 239 nM
EC50 (Plasmodium falciparum [3]): 200 nM

O=C1CSc2nc3ccccc3n21
CC50 [1]: > 100000 nM
EC50 (Plasmodium falciparum [2]): 7920 nM
EC50 (Plasmodium falciparum [3]): 1060 nM

CN1CCN(c2nc(Nc3ccc(O)cc3)nc3ccccc23)CC1
CC50 [1]: 41800 nM
EC50 (Plasmodium falciparum [2]): 626 nM
EC50 (Plasmodium falciparum [3]): 443 nM

CC[n+]1c(C=C2C=CN(C)C=C2)ccc2cc(C)ccc21
CC50 [1]: > 26800 nM
EC50 (Plasmodium falciparum [2]): 388 nM
EC50 (Plasmodium falciparum [3]): 286 nM

COc1ccc(C=CC(=O)Nc2ccncc2)cc1OC
CC50 [1]: > 100000 nM
EC50 (Plasmodium falciparum [2]): 358 nM
EC50 (Plasmodium falciparum [3]): 1070 nM

CC(C)(C)NCC(O)Cn1c2ccc(I)cc2c2cc(I)ccc21 (configuration not stated)
CC50 [1]: 6090 nM
EC50 (Plasmodium falciparum [2]): 608 nM
EC50 (Plasmodium falciparum [3]): 64 nM
